The nature of data set [1]: skin tolerability.
Data set [2] in a line: solubility in solvents. The format is physicochemical. The text has this: By virtue of its solubility profile, the compound is readily miscible, in some cases using solubilizers, with oils, fats and emulsions and, in view of its profile of properties, can be used in combination with other known light protection filters. […] In view of the property profile of isoquercitrin, it is easy for the person skilled in the art to choose suitable solvents and additives depending on the desired preparation product. It is particularly easy to prepare emulsions, gels or emulsion care sticks with isoquercitrin. It is, however, also possible to prepare all other cosmetic formulations, such as ointments, creams, lotions, oils, sticks and sprays, and also pharmaceutical formulations in solid or liquid form using appropriate additives.

Data set [3] deals with herpes simplex viruses. Particulars: compounds of the same aglycone compared; quercetin active only in very high doses, if at all; cited from earlier work.

As for `O=c1c(O[C@@H]2O[C@H](CO)[C@@H](O)[C@H](O)[C@H]2O)c(-c2ccc(O)c(O)c2)oc2cc(O)cc(O)c12` [isoquercitrin], in data set [1], the “skin tolerance, toxic or allergic reaction” value is “well tolerated by the skin”. In addition, the “solubility in polar solvents” value in data set [2] (ethanol or 1,2-propylene glycol) is reported as “particularly readily soluble”. In data set [2] (glycerol, forms a slightly cloudy solution), the solubility in glycerol entry is on record as “soluble in glycerol”.

Take `O=c1c(O)c(-c2ccc(O)c(O)c2)oc2cc(O)cc(O)c12` [quercetin]: the antiviral effects result in data set [3] is “virtually no antiviral effects”.

(Values after patent publication US20020151599A1, “FORMULATIONS HAVING AN ANTIVIRAL ACTION” (priority 1999, published 2002).)
